The text below walks through data of patent US12600732B2, “Bifunctional compounds for degrading BTK via ubiquitin proteosome pathway” (NURIX THERAPEUTICS, INC., priority 2019, dated 2026).

For orientation: EC50 means the concentration needed to bring the measured effect to its halfway point. Broadly, the DC50 is the concentration giving 50% degradation. A high value points to a less potent degrader. What is called AUC is the area under the concentration-time curve, a measure of exposure. What is called clearance is a measure of how efficiently the substance is removed, as volume per time. High values mean efficient removal, low ones inefficient removal. The bioavailability is the share of a dose that reaches the circulation, judged against a reference dose that is usually intravenous. A high value points to good availability.

One data set deals with TMD8 C481S cells. As to the kind of experiment: Cell viability assay (CellTiter-Glo), TMD8 C481S cells. Conditions: for EC50: Homo sapiens, TMD8, 72 h; for EMAX (% viable cells): TMD8 C481S cells, treatment time 72 h. A general note: Cellular ATP, detected with luciferase, serves as a proxy for viable cell number.
In a further data set the test system is TMD8 tumor cells. As to the kind of experiment: TMD8 xenograft efficacy study (wild-type BTK). The data set is classed as in vivo, mouse. Conditions: TMD8 WT, PO, 30 mg/kg, QD, 21 days of dosing. On the procedure:
[…] Tumor growth inhibition (% TGI) were calculated on the final day of measurement using the equation [1−(T−T0/C−T0)]×100, where T and C represent the mean size of tumors in the treated (T) and control (C) groups, and T0 refers to the tumor size at randomization.
(§1) This example examines the activity of various BTK CTMs in relevant disease models, including the WT and C481S TMD8 model, which models B cell malignancies with/without inhibitor-driven BTK mutations at C481.

For data set [1], the target named is BTK (Homo sapiens, UniProt Q06187). As to the kind of experiment: BTK remaining in TMD8 WT mouse xenograft study. Set-up: from tissue; host or cells: TMD8 xenograft in CB.17 SCID mice. The data set is classed as in vivo. The following applies: PO, 30 mg/kg, QD, 21 days of dosing.
Excerpt: Efficacy in Mouse Xenograft Models
as §1

For data set [2], the target named is T1, BTK (Mus musculus, UniProt P35991).
T1 construct: from tissue; host or cells: mouse blood B cells / splenocytes (CD-1 or BALB/c)
As to the kind of experiment: In vivo degradation of BTK in mouse PD experiments with oral dosing. The method in brief: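 BTK in blood or splenocytes read by flow cytometry (or HTRF), degradation taken as B-cell minus T-cell BTK MFI versus vehicle. Mice (CD-1 or BALB/c) received compound orally, initially 90 mg/kg for 6 h, then lower doses and longer time points.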

The next data set deals with BTK C481S (Homo sapiens, UniProt Q06187, C481S). As to the kind of experiment: BTK degradation (Total BTK HTRF) in TMD8 cells expressing BTK-C481S. The data set is classed as cell-based. More on the design: endogenous in cells; host or cells: TMD8 BTK-C481S (clone2C3), Cas9 RNP knock-in. Conditions: TMD8 BTK-C481S (clone2C3) cells, treatment time 4 h. The method, then:
BTK levels were determined using Cisbio Total-BTK HTRF (Homologous Time-Resolved Fluorescence) kit (63ADK064PEG) according to the manufacturer's protocol. Briefly, cells were incubated in 1× supplied lysis buffer for 30 minutes. In an opaque white low volume 96-well plate (Cisbio, 66PL96005), cell lysate was combined with two different specific BTK antibodies, one conjugated with Eu^3+-Cryptate FRET donor and one conjugated with d2 FRET acceptor. Assay controls include wells containing cell lysate with only the Eu^3+-Cryptate FRET donor antibody and wells containing both HTRF antibodies and lysis buffer without cells or control lysate provided by Cisbio. HTRF ratio was calculated as (acceptor signal at 665 nm/donor signal at 620 nm)×10^4. Background HTRF levels were determined from the control well containing the donor, but no acceptor, antibody. Background HTRF levels were subtracted from all samples. Readouts were reported as HTRF levels relative to HTRF levels of DMSO-treated cells. Four-parameter non-linear regressions were performed in GraphPad Prism 7.02 to obtain DC50 values.
BTK Degradation (Total BTK HTRF) at Four Hours in TMD8 Cells Expressing BTK-C481S
This example evaluates the potency of CTM in degrading […]. The BTK binding moieties utilized in CTMs bind to the BTK active site. This example evaluates whether the active site mutation C481S affects CTM-induced degradation of BTK.
In general terms: In TR-FRET formats the signal depends on donor and acceptor labels being close together.

A further data set deals with TMD8 cells. As to the kind of experiment: Cell viability assay (CellTiter-Glo), TMD8 cells. Conditions: for EC50: Homo sapiens, TMD8, 72 h; for EMAX (% viable cells): TMD8 cells, treatment time 72 h.
Data set [3] can be described thus: PK data for BTK CTMs (in vivo plasma concentrations). Conditions: Mouse Balb/c; for Vd: read-out: Volume of Distribution. From the text:
The present example evaluates in vivo plasma concentrations of BTK CTMs to develop PK-PD-efficacy relationship and predict human exposure.

Data set [4] concerns B cell receptor (BCR) signaling. As to the kind of experiment: B cell activation assay (flow cytometry), mouse B cells. The following applies: treatment 4 h, IgM stimulation 18 h. The data set is classed as cell-based. On the procedure:
Compound was present throughout the stimulation. Cells were stained with Live/Dead dye (Fisher L34976) and then fluorophore-conjugated antibodies against CD20 (Biolegend 302330), CD3 (BD Pharmingen 557705), CD86 (Biolegend 305416) and CD69 (Biolegend 310906). Stained cells were fixed in PFA and run on an Attune N×T Acoustic Focusing Flow Cytometer (Thermo-Fisher A29004), and data was analyzed using FlowJo (v10.5.3) and GraphPad Prism (v7.00) software. Single live lymphocytes were gated for B cells (CD20+CD3−) and T cells (CD3+CD20−), and the geometric mean fluorescence intensity (MFI) of CD86 and CD69 was calculated for each population. The MFI of the unstimulated sample was used to quantify baseline activation.
This example evaluates whether CTM treatment affects B cell receptor (BCR) signaling. BTK is activated downstream of the B cell receptor and leads to upregulation of activation markers CD86 and CD69 on the surface of B cells.
On the technique in general: In flow cytometry, cells or beads pass a laser one at a time.

Setting [5] is: oral dose 3 mg/kg, 24 h, blood, flow cytometry.

The structures appear in SMILES notation. Values joined by “and” are separate entries in the source; they are usually repeats but may differ in a detail not shown here. Identical values can stand only once. Like-named read-outs stand apart in the source and are kept apart here.

For `CN1CCN([C@@H]2CCCN(c3cnc(C(N)=O)c(Nc4ccc(N5CCC6(CC5)CCN(c5ccc7c(c5)C(=O)N(C5CCC(=O)NC5=O)C7=O)CC6)cc4)n3)C2)C1=O` (stereo partly shown) [Compound 55], the half-maximal effective concentration (EC50) with TMD8 C481S cells amounted to 16.8 nM; in the data set on TMD8 cells it was 2.4 nM. For the same molecule, the “EMAX (% viable cells)” value in the data set with TMD8 C481S cells stood at 19%; in the data set with TMD8 cells it was 15%. The “Tumor Growth Inhibition (relative to vehicle)” value in the data set on TMD8 tumor cells was 17%. Moreover, the “BTK Remaining (% relative to vehicle)” value at BTK [1] is listed as 27%. The “% BTK Remaining” value at BTK [2] (oral dose 0.3 mg/kg, 24 h, blood, flow cytometry) was 83%; on BTK [2] (oral dose 0.3 mg/kg, 24 h, splenocytes, flow cytometry), 114%; on BTK [2] (oral dose 1 mg/kg, 6 h, splenocytes, HTRF, 1 mg/kg), 80% and 66%; on BTK [2] (oral dose 3 mg/kg, 6 h, splenocytes, HTRF), 18%; on BTK [2] (setting [5]), 55%; on BTK [2] (oral dose 3 mg/kg, 24 h, splenocytes, flow cytometry), 72%. In addition, the “% BTK Remaining” value on BTK [2] (oral dose 10 mg/kg, 24 h, blood, flow cytometry) is recorded as 47%; on BTK [2] (oral dose 10 mg/kg, 24 h, splenocytes, flow cytometry) it was 45%; on BTK [2] (oral dose 30 mg/kg, 24 h, blood, flow cytometry), 39%; at BTK [2] (oral dose 30 mg/kg, 24 h, splenocytes, flow cytometry) it was 36%; on BTK [2] (oral dose 90 mg/kg, 24 h, blood, flow cytometry) it was 23%; on BTK [2] (oral dose 90 mg/kg, 24 h, splenocytes, flow cytometry), 48%. On BTK C481S, this molecule had a DC50 of 5.8 nM. Also, the AUC in data set [3] (1 mg/kg IV) was determined as 8.64 µM·h; in data set [3] (30 mg/kg PO) it was 74.3 µM·h. The same molecule registered a clearance in data set [3] (1 mg/kg IV) of 2.4 mL/min/kg. Further, the Vd in data set [3] (1 mg/kg IV) is 0.48 L/kg. Also, the bioavailability in data set [3] (30 mg/kg PO) was 29%.

For `CN1CCN([C@H]2CCCN(c3cnc(C(N)=O)c(Nc4cnn(C5CCN(CC6CCN(c7ccc8c(c7)C(=O)N(C7CCC(=O)NC7=O)C8=O)CC6)CC5)c4)n3)C2)C1=O` (stereo partly shown) [Compound 83], the concentration giving a half-maximal response (EC50) stood at 4.32 nM in the data set with TMD8 C481S cells, 0.08 nM in data set [4] (read-out: CD69 EC50), 0.1 nM in data set [4] (read-out: CD86 EC50) and 1.66 nM in the data set with TMD8 cells. Further, the “EMAX (% viable cells)” value in the data set on TMD8 C481S cells came to 52%; in the data set with TMD8 cells, 38%. Also, the “Tumor Growth Inhibition (relative to vehicle)” value in the data set on TMD8 tumor cells was 39%. In addition, at BTK [1], the “BTK Remaining (% relative to vehicle)” value stood at 22%. Moreover, the “% BTK Remaining” value on BTK [2] (oral dose 3 mg/kg, 6 h, blood, flow cytometry) is 48%; at BTK [2] (setting [5]), 63%. Further, the 50% degradation concentration (DC50) on BTK C481S was 2.7 nM. Also, the figures for the AUC in data set [3] (1 mg/kg IV) and in data set [3] (30 mg/kg PO) were 0.29 µM·h and 0.81 µM·h, respectively. The same molecule gave a clearance in data set [3] (1 mg/kg IV) of 68.3 mL/min/kg. In addition, the Vd in data set [3] (1 mg/kg IV) amounted to 4 L/kg. In addition, the bioavailability in data set [3] (30 mg/kg PO) is 9%.
